According to patent US10000771B2, “Nuclear targeting sequences” (Yeda Research and Development Co. Ltd., priority 2007, dated 2018):
Ends that are not written are not given here. 2GFP = dimer of GFP proteins

Assays:
SPS domain = experiment: SPS phosphorylation detected by anti pSPS Ab Western blot; format: cell-based; details: COS7 cells; for SPS phosphorylation upon stimulation (anti pSPS Ab recognition): stimulated with VOOH, TPA, EGF or TGFβ, immunoprecipitation and Western blot
Procedure: FIGS. 4A-4I are autoradiographs characterizing SPS phosphorylation using an Ab to the phosphorylated SPS domain. FIG. 4A illustrates an elevation of pSPS detection upon stimulation. COS cells were transfected with WT-GFP-ERK2. Twenty-four hr after transfection, the cells were serum-starved for 16 hr and subsequently treated with the general stimulator VOOH (V, 100 μM Na3VO4 and 200 μM H2O2, 15 min), TPA (T, 250 nM, 15 min), EGF (E, 50 ng/ml for 15 min), or left untreated (NT). The GFP-ERK2 was immunoprecipitated with anti GFP Ab, extensively washed, and the IP was then subjected to Western blotting with anti phospho SPS-ERK (αphoSPS-ERK) and anti general ERK (αgen-ERK) Abs. FIG. 4B is a time course of SPS phosphorylation. COS7 cells overexpressing WT-GFP-ERK2 were serum starved followed by EGF stimulation for the indicated time points. The lysates were then subjected to Western blot analysis as in FIG. 4A. FIGS. 4C-D. GFP-ERK2 was immunoprecipitated from VOOH stimulated (Act) or non-stimulated (NT), transfected COS7 cells as above. The immunoprecipitated protein was then incubated with shrimp's alkaline phosphates (SAP, 15 units, 30 min, 30° C. in the manufacturer digestion buffer), and subjected to Western blot analysis with anti phosphoSPS-ERK (αpSPS; FIG. 4C), anti phosphoTEY-ERK (αpTEY; FIG. 4D), and anti general-ERK Ab (αgen-ERK; FIGS. 4C, D). FIG. 4E. Elevation of anti pSPS Ab immunoreactivity upon stimulation of endogenous ERKs. Following serum starvation COS7 cells were treated with EGF (50 ng/ml) or VOOH (V, 100 μM Na3VO4 and 200 μM H2O2) for the indicated times. SPS phosphorylation was detected using the anti pSPS Abs, and this was compared to the amount of genral ERKs detected by αgERK. FIG. 4F. Specificity of the anti pSPS Ab. COS7 cells overexpressing either GFP-ERK2 or 244-6A mutant were serum starved for 16 hr, and then treated with EGF (50 ng/ml) for 15 min following WB analysis using αpSPS and αgERK Abs. FIG. 4G. TEY phosphorylation is not required for SPS phosphorylation. COS7 cells overexpressing WT-ERK2 or TEY-AAA were treated as described in D. FIG. 4H. COS7 cells were treated with or without UO126 prior (15 min) to EGF (50 ng/ml) stimulation for the indicated times. SPS-phosphorylation was detected using αpSPS and αgERK Abs. FIG. 4I. Phosphorylation of SPS is mediated by ERK autophosphorylation. […] The phosphorylation (^32P-ERK2) of ERK and its mutants was detected by autoradiography. […]
FIG. 9B is an autoradiograph illustrating that stimulation elevates pSPS phosphorylation of 2GFP-SPS construct. […] The total amount of immunoprecipitated 2GFP-SPS was detected with αGFP Ab. […]

importin-7 = target: T1, importin-7 (Homo sapiens, UniProt O95373); experiment: Coimmunoprecipitation with importin-7; format: binding; details: HeLa cells
T1 construct: endogenous in cells; host or cells: HeLa
T1 sequence (O95373 whole entry): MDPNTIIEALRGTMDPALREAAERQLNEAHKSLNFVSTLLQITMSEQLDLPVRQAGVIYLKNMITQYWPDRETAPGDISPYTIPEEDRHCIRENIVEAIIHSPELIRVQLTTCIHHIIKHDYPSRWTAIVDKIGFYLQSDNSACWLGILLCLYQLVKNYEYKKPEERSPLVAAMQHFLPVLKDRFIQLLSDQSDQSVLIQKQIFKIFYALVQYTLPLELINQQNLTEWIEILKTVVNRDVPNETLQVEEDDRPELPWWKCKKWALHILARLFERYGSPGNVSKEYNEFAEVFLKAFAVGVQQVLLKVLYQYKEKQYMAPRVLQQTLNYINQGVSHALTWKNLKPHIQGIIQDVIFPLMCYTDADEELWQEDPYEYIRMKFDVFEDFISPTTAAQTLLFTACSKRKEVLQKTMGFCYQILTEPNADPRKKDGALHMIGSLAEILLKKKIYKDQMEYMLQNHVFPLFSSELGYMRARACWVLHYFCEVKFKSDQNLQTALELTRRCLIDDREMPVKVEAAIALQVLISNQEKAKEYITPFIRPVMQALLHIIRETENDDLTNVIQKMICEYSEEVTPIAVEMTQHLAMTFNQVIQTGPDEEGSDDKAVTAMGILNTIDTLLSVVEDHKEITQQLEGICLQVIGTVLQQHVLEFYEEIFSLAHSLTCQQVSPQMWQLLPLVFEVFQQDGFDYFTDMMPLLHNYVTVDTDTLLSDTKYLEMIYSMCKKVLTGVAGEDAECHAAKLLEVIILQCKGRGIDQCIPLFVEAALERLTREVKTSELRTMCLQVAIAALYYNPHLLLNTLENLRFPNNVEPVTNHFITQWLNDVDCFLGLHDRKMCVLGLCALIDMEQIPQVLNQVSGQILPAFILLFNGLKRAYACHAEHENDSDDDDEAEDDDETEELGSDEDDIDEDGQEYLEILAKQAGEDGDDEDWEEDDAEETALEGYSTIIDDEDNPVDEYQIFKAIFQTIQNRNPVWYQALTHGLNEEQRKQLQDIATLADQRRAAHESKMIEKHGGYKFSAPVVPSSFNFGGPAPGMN
Procedure: FIGS. 19A-19C are autoradiographs illustrating that phospho-SPS interacts with importin-7 and releases Nup153c binding without involvment of importin-β. […]. Interaction of ERK2 with Importin-7 is enhanced by EGF stimulation and EPE mutation. HeLa cells overexpressing WT-ERK (WT), ERK-APA (APA), ERK-EPE (EPE) or GFP were serum starved and treated with EGF (50 ng/ml, 10 min). The extracts of the treated cells were then subjected to coimmunoprecipitation using A/G beads pre-conjugated with anti GFP Ab and mild washes. The coimmunoprecipitated importin-7 (first panel) and importin-β (third panel), as well as their loading amounts (panels 2 and 4 respectively) were determined by WB using anti importin-7 (αImp7) and importin-β (αImpβ) Abs. The equal amount of immunoprecipitated ERKs was determined with anti GFP (αGFP; IP) Ab. FIG. 19B. Interaction of 2GFP-SPS and its mutants with importin-7. HeLa cells overexpressing 2GFP, 2GFP-SPS, 2GFP-APA and 2GFP-EPE constructs were subjected to coimmunoprecipitation as described in FIG. 19A (without EGF stimulation). FIG. 19C. Interaction of NUP153 with WTERK2 and its APA and EPE mutants. NUP153c is elevated in APA-ERK2, but reduced in EPE-ERK2. Immunoprecipitated and stringently washed WT-ERK2 (WT), APA-ERK2 (APA) or ERK2 from […] cells pre-treated with or without TPA (250 nM, 15 min) were incubated with 0.5 μg recombinant His-Nup153c. This was followed by mild washing, and the beads were then subjected to Western blot analysis using anti His (αHis) and anti αGFP Abs.
Immunoprecipitation. Cellular extracts of stimulated transfected cells, were incubated with anti-GFP antibody preconugated to A/G beads (Santa Cruz; (2 hr, 4° C.). Subsequently, the beads were washed twice with HNTG buffer and once with 0.5 M LiCl. The immunoprecipitates were subjected either to Western blotting as described above or to an in vitro phosphatase assay as described under Results.

interaction of 2GFP constructs with importin-7 (importin-7; coimmunoprecipitation, without EGF stimulation) | Substance | time of peak SPS phosphorylation (SPS domain; following EGF stimulation) [min] | SPS phosphorylation upon stimulation (anti pSPS Ab recognition) (SPS domain) | interaction of ERK2 constructs with importin-7 (importin-7; coimmunoprecipitation with anti GFP Ab, with or without stimulation)
 | WT-ERK2: wild-type ERK2 fused to GFP, prepared in pEGFP C1 [reference compound] | 15 | significantly increased | significantly increased upon TPA stimulation
did bind importin-7 | 2GFP-SPS: 2GFP with the 19 amino acid stretch containing the SPS of ERK2 (SEQ ID NO: 6) fused to its C terminus (2GFP-LDQLNHILGILGSPSQEDL) |  | elevates | 
